This is an account of results in US9220682B2, “Nanocarrier therapy for treating invasive tumors” (Emory University, priority 2009, dated 2015).

Entries after “also recorded” stand apart in the source; their conditions may differ.

The test system of data set [1] is RT2 rat astrocytoma cell line. The data set can be described thus: Boyden chamber invasion assay at 48 hours. It counts as cell-based. The following applies: RT2 cells, 0.01-5 μg/ml. Here is the method:
FIG. 1b is a bar graph showing the dose dependent effects of IB on invasion using a Boyden Chamber Assay. […] At concentrations above 20 μg/ml, IB was cytotoxic to cancer, and not just anti-invasive.
(§1) An aggressive rat astrocytoma cell line, RT2, was maintained in vitro. This cell line was used to test 24 compounds at varying concentrations in cytotoxicity and proliferation assays using CCK8 (Dojindo), a tetrazolium salt based assay. Compounds without detrimental effects on viability and growth were tested using the Boyden chamber invasion assay at 48 hours. Compounds were also tested for viability against astrocyte cultures using CCK8. Of these compounds, several were identified as anti-invasive. However, several compounds were toxic to astrocytes in culture and several were cytotoxic and not in fact anti-invasive.
It also is benign to astrocyte co-culture making it safer for delivery to the brain (FIG. 3a). The compound is blue in color with an absorbance at 610 nm making it easily assayable. […] At concentrations above 20 μg/ml, IB was cytotoxic to cancer and not just anti-invasive.

The subject of data set [2] is RT2 rat astrocytoma cell line. In words: Cytotoxicity and proliferation assays using CCK8. It counts as cell-based. On the procedure:
(§2) FIG. 1a is a bar graph showing the effects of IB on cell growth in vitro, in terms of normalized cell viability.
as §1

The test system of a further data set is astrocytes. The data set can be described thus: Viability against astrocyte cultures using CCK8. It counts as cell-based. The following applies: CCK8, 5 μg/ml. On the procedure:
as §2, §1

The next data set concerns glioma cells. In words: Invasion assay at 24 hours, encapsulated versus free drug. It counts as cell-based. Here is the method: FIG. 4 is a chart showing the results of an invasion assay at 24 hours, showing invasion (%) over time (24 hours).
An invasion assay was performed at 24 hours. The encapsulated formulation was compared to tree drug in vitro and was still active as an anti-invasive agent. Encapsulation of the compound in liposomes is reproducible and consistent between batched.

Data set [3] is described as follows: Pharmacokinetics of free versus liposomal IB (Example 3). It counts as in vivo. To be noted: rat, tail vein, 20 mg/kg, Cremaphor formulation. On the procedure:
FIG. 5 is a chart showing the pharmacokinetics of free versus encapsulated imipramine blue, in terms of plasma concentration (mg/ml) over time (hours).
Animals were injected via tail vein with 20 mg/kg liposomal or free IB. Orbital blood draws were performed at intervals and blood collected, centrifuged, and serum read at 610 nm absorbance for pharmacokinetics. […] For biodistribution, animals were perfused with saline, organs collected, homogenized, and drug extracted with DMSO and read at 610 nm absorbance.
The circulation time of the free imipramine blue was tested in a Cremaphor formulation similar to that of paclitaxel.

Data set [4] can be described thus: Plasma clearance of free IB versus Nano-IB (Example 6). It counts as in vivo, rat. To be noted: non tumor-bearing adult male rats, tail vein, readings over 1 hour.
Method: Imipramine Blue liposomes were injected via the tail vein into adult male rats (non tumor-bearing). Blood samples were taken via the orbital cavity at different time points after drug administration, plasma separated and analyzed for IB content via absorbance readings on spectrophotometer.
The next data set relates to RT2 glioma cells. The data set can be described thus: Actin staining of IB-treated glioma cells. It counts as cell-based, rat. The following applies: 24 hours, versus ethanol. Here is the method:
FIGS. 9A and 9B are photomicrographs showing the results of in vitro treatment of RT2 glioma cells with IB. Cells were treated with ethanol […] or IB […] and stained for actin (red) and nuclei (blue).
The ability of IB to impact invasion capability of glioma cells was tested further in vitro. Cells were treated for 24 hours with either IB dissolved in ethanol or an equivalent volume of ethanol.

In another data set the test system is HIF2a. The following applies: WM35 PKB cells, 5 micromolar, 24 hours; cited from earlier work.

With `CCN(CC)c1ccc(C(c2ccc(N(CC)CC)cc2)=c2ccc3c(c2)CCc2ccccc2[N+]=3CCCN(C)C)cc1` [IB, Imipramine Blue], the anti-invasive effect result in data set [1] is listed as “highest anti-invasive properties; also recorded: dose-dependent anti-invasive response”. Besides, in data set [2], the “concentration at which IB is cytotoxic to cancer” value is “above 20 μg/ml”. Further, the “proliferation of RT2 cells” value in data set [2] (CCK8) is “not antiproliferative; also recorded: not particularly cytotoxic or anti-proliferative”. Further, the “cytotoxicity to RT2 cells” value in data set [2] (CCK8, at anti-invasive concentrations) is “not particularly cytotoxic”. For the same compound, the “effect on astrocyte culture” value in the data set with astrocytes is “benign”. Besides, the “invasion relative to control (100 percent)” value in the data set on glioma cells is “around 60%”. Besides, the “half-life of free IB” value in data set [3] was 11 min; in data set [3] (listed as free imipramine blue), “around 11 minutes”; in data set [4] it was 12 min. In addition, in the data set with RT2 glioma cells, the effect on cytoskeleton entry was “alters the arrangement of the cytoskeleton”. Further, in the data set with HIF2a, the “inhibition of HIF2a expression” value is listed as “around 90%”.
